Earlier results as cited in US20050158747A1, “CFTR modifier genes and expressed polypeptides useful in treating cystic fibrosis and methods and products for detecting and/or identifying same” (priority 2003, published 2005).

Tests used:
sodium (Na^+) channels = settings: aerosolized; initial results
[1] = test system: purinergic receptors in the airway epithelium; settings: in vitro studies

| Compound | rate of disease progression, as measured by lung function tests (sodium (Na^+) channels) | safety in trials (sodium (Na^+) channels) | chloride (Cl^−) secretion [1] |
| --- | --- | --- | --- |
| N=C(N)NC(=O)c1nc(Cl)c(N)nc1N [amiloride] | slight change in the rate of disease progression | safe | – |
| Nc1ncnc2c1ncn2[C@@H]1O[C@H](COP(=O)(O)OP(=O)(O)OP(=O)(O)O)[C@@H](O)[C@H]1O [ATP] | – | – | can stimulate chloride (Cl^−) secretion |
| O=c1ccn([C@@H]2O[C@H](COP(=O)(O)OP(=O)(O)OP(=O)(O)O)[C@@H](O)[C@H]2O)c(=O)[nH]1 [UTP] | – | – | can stimulate chloride (Cl^−) secretion |
